As usually defined, the IC50 is the concentration that inhibits the measured activity by half.

We go through 24 compounds from publication PMC2892117 (Bioorganic & medicinal chemistry, 2010).

The subject of one assay is T. b. r. STIB 900. The assay is described as follows: STIB900 mouse model for acute African trypanosomiasis. The format is in vivo. To be noted: for responders at 25 mg/kg / responders at 5 mg/kg: Mus musculus, 1440 h, read-out: Cures; for Survival / Survival (days): average days of mice survival; for Cures: number of mice that survive and are parasite free for 60 days.
The subject of assay [1] is Trypanosoma brucei rhodesiense STIB900. The assay is described as follows: microbe, parasite or virus in culture. To be noted: RHODESIENSE|STIB900, read-out: T. b. r. IC50.
A further assay relates to Plasmodium falciparum K1. Description: In vitro assay with P. f. K1 strain. The format is cell-based. To be noted: K1, read-out: P. f. IC50.

Structures can show the parent of a compound that is named as a salt. A value given as a limit tells only on which side of the number the result lay.

With `CO/N=C(/N)c1ccc(-c2cnc(-c3ccc(/C(N)=N\OC)cc3)s2)cc1.Cl.Cl` [7a, 2,5-Bis-(4-N-methoxyamidinophenyl)thiazole dihydrochloride], in the assay on T. b. r. STIB 900 (po), the responders at 25 mg/kg worked out at 0%. The “Survival” value in the assay with T. b. r. STIB 900 (po, 4 × 25 mg/kg) was 41 days.
With `Cl.Cl.N=C(N)c1ccc(-c2cnc(-c3ccc(C(=N)N)cc3)s2)cc1` [5a, 2,5-Bis(4-amidinophenyl)thiazole dihydrochloride], the responders at 5 mg/kg in the assay with T. b. r. STIB 900 (ip) was 25%. Also, the “Survival” value with T. b. r. STIB 900 (ip, 4 × 5 mg/kg) is given as greater than 44.5 days. In addition, the Cures in the assay on T. b. r. STIB 900 (ip, 4 × 5 mg/kg, 5 mg/kg) is 1 of four and one of four.
As for `Cl.Cl.N/C(=N\O)c1ccc(-c2cnc(-c3ccc(/C(N)=N\O)nc3)s2)cn1` [6e, 2,5-Bis-(2-N-hydroxyamidinopyridin-5-yl)thiazole dihydrochloride], the responders at 25 mg/kg in the assay with T. b. r. STIB 900 (po) is 25%. The “Survival” value in the assay with T. b. r. STIB 900 (po, 4 × 25 mg/kg) was greater than 37.5 days.
For the compound `N=C(N)c1ccc(OCCCCCOc2ccc(C(=N)N)cc2)cc1` [I, pentamidine, reference compound], the responders at 5 mg/kg in the assay on T. b. r. STIB 900 (ip) is 50%.
`N=C(N)c1ccc(-c2ccc(-c3ccc(C(=N)N)cc3)o2)cc1` [IIa, furamidine]: the “Survival” value with T. b. r. STIB 900 (ip, 4 × 5 mg/kg) is listed as greater than 46 days. Further, the IC50 in assay [1] worked out at 3.2 nM.
Turning to `N=C(N)c1ccc(-c2ccc(-c3ccc(C(=N)N)cn3)o2)cc1` [IIc, azafuramidine, reference compound], the IC50 was 6.5 nM with Plasmodium falciparum K1 and 7 nM in assay [1]. Further, the responders at 5 mg/kg in the assay with T. b. r. STIB 900 (ip) was 75%. Moreover, the “Survival” value in the assay on T. b. r. STIB 900 (ip, 4 × 5 mg/kg) is listed as greater than 54.5 days.
As to `Cl.Cl.N=C(N)c1ccc(-c2cnc(-c3ccc(C(=N)N)cn3)s2)nc1` [5g, 2,5-Bis-(3-amidinopyridin-6-yl)thiazole dihydrochloride], the responders at 5 mg/kg in the assay on T. b. r. STIB 900 (ip) amounted to 0%. Also, in the assay with T. b. r. STIB 900 (ip, 4 × 5 mg/kg), the “Survival” value is reported as 21.5 days.
For `Cl.Cl.N/C(=N\O)c1ccc(-c2ncc(-c3ccc(/C(N)=N\O)nc3)s2)cc1` [6d, 2-(4-N-hydroxyamidinophenyl)-5-(2-N-hydroxyamidinopyridin-5yl)thiazole dihydrochloride], the responders at 25 mg/kg in the assay on T. b. r. STIB 900 (po) is 0%. Also, in the assay with T. b. r. STIB 900 (po, 4 × 25 mg/kg), the “Survival” value was found to be 36.75 days.
For the compound `CO/N=C(\N)c1ccc(-c2ccc(-c3ccc(/C(N)=N/OC)cn3)o2)cc1` [IId, reference compound], in the assay with T. b. r. STIB 900 (po, 4 × 5 mg/kg), the “Survival (days)” value is listed as >60 >60 days and the Cures is given as 4/4 4/4. Besides, in the assay with T. b. r. STIB 900 (po, 4 × 25 mg/kg), the “Survival (days)” value is listed as >60 >60 days and the Cures is reported as 4/4 4/4.
Consider `Cl.Cl.N/C(=N\O)c1ccc(-c2cnc(-c3ccc(/C(N)=N\O)cn3)s2)cc1` [6c, 5-(4-N-hydroxyamidinophenyl)-2-(3-N-hydroxyamidinopyridin-6-yl)thiazole dihydrochloride], for which the responders at 25 mg/kg in the assay on T. b. r. STIB 900 (po) was found to be 0%. In addition, in the assay on T. b. r. STIB 900 (po, 4 × 25 mg/kg), the “Survival” value stood at 24 days.
With `Cl.Cl.N=C(N)c1ccc(-c2ncc(-c3ccc(C(=N)N)nc3)s2)cc1` [5d, 2-(4-Amidinophenyl)-5-(2-amidinopyridin-5-yl)thiazole dihydrochloride], the responders at 5 mg/kg in the assay on T. b. r. STIB 900 (ip) came to 0%. The “Survival” value in the assay with T. b. r. STIB 900 (ip, 4 × 5 mg/kg) is listed as greater than 36 days.
Turning to `CO/N=C(\N)c1ccc(-c2cnc(-c3ccc(/C(N)=N/OC)nc3)s2)cc1.Cl` [7b, 5-(4-N-methoxyamidinophenyl)-2-(2-N-methoxyamidinopyridin-5-yl)thiazole dihydrochlodide], the responders at 25 mg/kg with T. b. r. STIB 900 (po) was 0%. The “Survival” value in the assay with T. b. r. STIB 900 (po, 4 × 25 mg/kg) was determined as 42.75 days.
As for `CO/N=C(\N)c1ccc(-c2cnc(-c3ccc(/C(N)=N\OC)cn3)s2)nc1` [7g, 2,5-Bis(3-N-methoxyamidinopyridin-6-yl)thiazole dihydrochloride], in the assay on T. b. r. STIB 900 (po), the responders at 25 mg/kg stood at 0%.
With `Cl.Cl.N/C(=N\O)c1ccc(-c2cnc(-c3ccc(/C(N)=N/O)nc3)s2)cc1` [6b, 5-(4-N-hydroxyamidinophenyl)-2(2-N-hydroxyamidinopyridin-5-yl)thiazole dihydrochloride], the responders at 25 mg/kg in the assay with T. b. r. STIB 900 (po) turned out to be 0%. The “Survival” value in the assay with T. b. r. STIB 900 (po, 4 × 25 mg/kg) was 37.5 days.
The corresponding values for `CO/N=C(\N)c1ccc(-c2cnc(-c3ccc(/C(N)=N\OC)nc3)s2)cn1.Cl.Cl` [7e, 2,5-Bis(2-N-methoxyamidinopyridin-5-yl)thiazole dihydrochloride] are 25% and greater than 47.25 days.
On to `CONC(=N)c1ccc(-c2ccc(-c3ccc(C(=N)NOC)cc3)o2)cc1` [IIb, Pafuramidine, reference compound], for which, in the assay with T. b. r. STIB 900 (po, 4 × 5 mg/kg), the Cures was 0/4. In the assay with T. b. r. STIB 900 (po, 4 × 25 mg/kg), the “Survival” value is greater than 60 days and the Cures is 4/4.
With `CO/N=C(\N)c1ccc(-c2cnc(-c3ccc(/C(N)=N\OC)cn3)s2)cc1.Cl.Cl` [7c, 5-(4-N-methoxyamidinophenyl)-2-(3-N-methoxyamidinopyridin-6-yl)thiazole dihydrochloride], the responders at 25 mg/kg in the assay with T. b. r. STIB 900 (po) worked out at 0%. The “Survival” value with T. b. r. STIB 900 (po, 4 × 25 mg/kg) is 35 days.
On to `N=C(N)c1ccc(-c2ccc(-c3ccc(C(=N)N)cc3)s2)cc1` [IIe, reference compound], for which the responders at 5 mg/kg in the assay on T. b. r. STIB 900 (ip) was 50%. Also, the “Survival” value with T. b. r. STIB 900 (ip, 4 × 5 mg/kg) is reported as greater than 48.75 days.
Take `N=C(N)c1ccc(-c2ncc(-c3ccc(C(=N)N)nc3)s2)nc1` [5f, 2-(3-Amidinopyridin-6-yl)-5-(2-amidinopyridin-5-yl)thiazole dihydrochloride]: the responders at 5 mg/kg in the assay with T. b. r. STIB 900 (ip) turned out to be 0%.
Same read-out and setting: with `N=C(N)c1ccc(-c2cnc(-c3ccc(C(=N)N)nc3)s2)cc1` [5b, 5-(4-Amidinophenyl)-2-(2-amidinopyridin-5-yl)thiazole dihydrochloride] the figure was 0%; with `N=C(N)c1ccc(-c2cnc(-c3ccc(C(=N)N)cn3)s2)cc1` [5c, 5-(4-Amidinophenyl)-2-(3-amidinopyridin-6-yl)thiazole dihydrochloride], 0%.
On to `Cl.Cl.N=C(N)c1ccc(-c2cnc(-c3ccc(C(=N)N)nc3)s2)cn1` [5e, 2,5-Bis(2-amidinopyridin-5-yl)thiazole dihydrochloride], for which the responders at 5 mg/kg in the assay with T. b. r. STIB 900 (ip) came out at 0%. Moreover, the “Survival” value with T. b. r. STIB 900 (ip, 4 × 5 mg/kg) worked out at 50.5 days.
`Cl.Cl.N/C(=N\O)c1ccc(-c2cnc(-c3ccc(/C(N)=N\O)cn3)s2)nc1` [6g, 2,5-Bis(3-N-hydroxyamidinopyridin-6-yl)thiazole dihydrochloride]: in the assay on T. b. r. STIB 900 (po), the responders at 25 mg/kg was 0%. Besides, the “Survival” value in the assay with T. b. r. STIB 900 (po, 4 × 25 mg/kg) stood at 9 days.
Take `N/C(=N/O)c1ccc(-c2cnc(-c3ccc(/C(N)=N\O)cc3)s2)cc1` [6a, 2,5-Bis-(4-N-hydroxyamidinophenyl)thiazole dihydrochloride]: the responders at 25 mg/kg in the assay with T. b. r. STIB 900 (po) is 0%.
